Assays:
[1] = test system: PTP1B expression in insulin-resistant HepG2 cells; assay: PTP1B expression level by Western blot; format: cell-based, human
Description: (§1) With minor modifications, the insulin resistant HepG2 cell model was developed according to the previous method. In short, in 96-well plats (2 × 10^5 cells/well), HepG2 cells were cultured. When they reached a confluence, 10^−6 M insulin was treated for 24 h on serum-free MEM to induce insulin resistance, then the cells were incubated for 30 min with 100 nM insulin and harvested for assays as described below.
Insulin-resistant HepG2 cells (5 × 10^5 cells/well) were treated for 24 h in 6-well plates with different concentrations of coumarins. The cells were washed with ice-cold PBS three times, collected, then lysed with a sample buffer [50 mM (4-(2-hydroxyethyl)-1-piperazineethanessulfonic acid) pH 7.5, 150 mM NaCl, 2.5 mM EDTA, 0.5% NP-40, 1 mM PMSF, 1 mM DTT, 0.2% aprotinin, 0.5% leupeptin, 20 mM NaF, and 1 mM Na3VO4] on ice after stimulation with 100 nM insulin at 37 °C for 30 min. Insoluble materials were extracted by centrifugation for 20 min at 25,000 × g after incubation for 30 min. An updated Bradford protein assay kit calculated the protein concentrations. Total protein (40 μg) was electrophoresed into a polyvinylidene difluoride (PVDF) membrane by use of a dodecyl sulfate-polyacrylamide gel electrophoresis (SDS-PAGE). In a blocking buffer, membranes were blocked (5% skim milk in Tris-buffered saline containing 0.1% Tween 20 (TBST) and incubated overnight at 4 °C with primary antibodies, followed by incubation at room temperature for 4 h with suitable secondary antibodies. Three times for 30 min with TBST, the membranes were washed. The Supersignal West Pico chemiluminescence substrate (Pierce, Rockford, IL, USA) has been used to visualize the protein bands and pictured on X-ray film (Kodak, Rochester, NY, USA) according to the manufacturer’s instructions. Using CS analyzer software (Atto Corp., Tokyo, Japan), bands were scanned and quantitated and the control was set to 1. As the internal control, β-actin was used. For determining the molecular weights of protein bands, prestained blue protein markers were used. Comparisons were made between mean band densities in same gels. Autoradiography visualized protein bands and measured the intensities using Quantity One software (Bio-Rad Laboratories, Hercules, CA, USA).

[2] = biological target: T1, PTP1B (human recombinant) (Homo sapiens, UniProt P18031); assay: PTP1B inhibitory assay with pNPP substrate, with Dixon and Lineweaver-Burk kinetics; format: biochemical; settings: for Protein Tyrosine Phosphatase 1B Inhibition Type: determined by Dixon and Lineweaver-Burk plots; for Ki: determined by the Dixon plot, read-out: Protein Tyrosine Phosphatase 1B Ki Value; for IC50: pNPP substrate, mean ± SEM of triplicate, read-out: Protein Tyrosine Phosphatase 1B IC50
T1 construct: purchased Biomol International LP (Plymouth Meeting, Pennsylvania, USA)
T1 sequence (P18031 1-435): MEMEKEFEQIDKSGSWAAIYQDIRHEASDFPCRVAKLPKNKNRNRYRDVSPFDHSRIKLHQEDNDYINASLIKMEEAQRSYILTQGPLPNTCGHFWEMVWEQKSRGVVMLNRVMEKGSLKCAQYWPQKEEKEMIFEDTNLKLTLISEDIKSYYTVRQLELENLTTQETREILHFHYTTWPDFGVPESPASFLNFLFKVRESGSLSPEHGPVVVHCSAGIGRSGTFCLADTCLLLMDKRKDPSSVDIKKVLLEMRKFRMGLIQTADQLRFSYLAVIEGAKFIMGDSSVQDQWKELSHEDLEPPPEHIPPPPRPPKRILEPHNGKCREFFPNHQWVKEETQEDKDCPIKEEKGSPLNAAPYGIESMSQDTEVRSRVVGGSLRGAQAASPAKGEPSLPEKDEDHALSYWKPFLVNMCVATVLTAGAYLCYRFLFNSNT
Description: The inhibitory activity of PTP1B has been tested using pNPP previously reported in our paper. The amount of p-nitrophenyl produced after enzymatic dephosphorylation of pNPP was calculated using a microplate spectrophotometer (Molecular Devices) to calculate absorbance at 405 nm.
(§2) Two kinetic methods using Lineweaver-Burk and Dixon plots have been complemented for the determination of the kinetic process. PTP1B inhibition mode was calculated at different pNPP substrate concentration (0.5, 1.0, and 2.0 mM) in the absence or presence of different coumarins test concentrations (0, 0.8, 4.0, and 20.0 µM for (+)-trans-decursidinol; 0, 2.0, 10.0, and 50 µM for Pd-C-I and Pd-C-II; 0, 4.0, 20.0, and 100 µM for Pd-C-III) using Lineweaver-Burk and Dixon plots. By monitoring the effects of different concentrations of the substrates in the Dixon plots (single reciprocal plot), each enzymatic inhibition of test coumarins was assessed. Additionally, in the presence of different concentrations of substrate: 2.5, 1.25, and 0.625 mM pNPG, the Lineweaver-Burk and Dixon plots for α-glucosidase inhibition of coumarins were also performed. The test concentrations of the coumarins in the α-glucosidase kinetic analysis were as follows 0, 7.81, 15.62, 31.25, and 62.5 µM for (+)-trans-decursidinol, Pd-C-I, and Pd-C-II; 0, 15.62, 31.25, 62.5, and 125 µM for Pd-C-III. The PTP1B and α-glucosidase assay methods were the same for both enzymatic procedures. The inhibition constants (Ki) were calculated by interpretation of the Dixon plots, where the value of the x-axis means -Ki.

[3] = test system: insulin-resistant HepG2 cells; assay: 2-NBDG glucose uptake assay; format: cell-based, human; settings: 24 h, insulin-stimulated 2-NBDG uptake
Description: as §1
In accordance with a previous method the glucose uptake assay was established with some modifications. Briefly, HepG2 cells were cultured in 96-well plate to confluence and then treated with 10^−6 M insulin for 24 h to induce insulin resistance (based on a 49% decrease in glucose uptake) (data not shown). Different coumarins (5–40 µM) or 10 µM metformin (non-cytotoxic concentration) concentrations were added and incubated for 24 h, followed by 100 nM insulin and cells incubation for 30 min, respectively. 2-NBDG uptake was measured following this incubation. The cells were incubated with 40 μM of 2-NBDG (dissolved in PBS with 1% BSA) for 20 min. The cells were washed thrice with ice-cold PBS to avoid the reaction, and the fluorescence intensity of 2-NBDG was calculated at 485 nm of excitation and 528 nm of emission on a microplate reader (Bio-Tek Instruments Inc., Winooski, VT, USA). Five replication wells have been set up, and three times each experiment has been replicated.

[4] = ONOO− scavenging activity (DHR 123); format: biochemical; settings: mean ± SEM of triplicate
Description: ONOO^− scavenging activity was measured using a slight modification of the method reported by Kooy’s that monitors output of fluorescent rhodamine 123 from non-fluorescent DHR 123 in the presence of ONOO^−. The rhodamine buffer (pH 7.4) consisted of 90 mM sodium chloride, 50 mM sodium phosphate dibasic, 5 mM potassium chloride, 100 µM diethylenetriaminepentaacetic acid and 50 mM sodium phosphate monobasic. DHR 123 final concentration was 5 µM. The buffer used in this assay was prepared and put on ice before use. In 10% DMSO, the samples were dissolved and authentic ONOO^− (10 µM) dissolved in 0.3 N sodium hydroxide was added. Background and final fluorescent intensities were measured after 5 min. The fluorescence intensity of the oxidized DHR 123 was measured with a microplate fluorescence reader (Bio-Tek Instruments, Inc., FLx 800, Winooski, UT, USA) on the excitation and emission wavelengths of 480 and 530 nm, respectively. As a standard control, L-penicillamine was used.

[5] = test system: t-BHP-treated HepG2 cells; assay: Intracellular ROS level in t-BHP-treated HepG2 cells (DCFH-DA); format: cell-based, human; settings: 200 μM t-BHP; for ROS generation: 10–40 μM
Description: A fluorometric assay was used to measure the intracellular ROS level in HepG2 cells applying the oxidant-sensitive fluorescence probe 2, DCFH-DA [47]. In order to determine the extent of intracellular ROS scavenging activity, HepG2 cells were seeded into black 96-well plates at a density of 2.0 × 10^5 cells/well and incubated with coumarins at a concentrations range of 2.5–40 µM for 1 h. To induce ROS production, cells were subsequently exposed to 200 µM tert-butyl hydroperoxide (t-BHP) for 30 min and were then incubated for 30 min with DCFH-DA (20 μM). At an excitation wavelength of 485 nm and an emission wavelength of 530 nm, the resulting fluorescence intensities were measured using a fluorescence microplate reader (FL × 800; Bio-Tek Instruments Inc., Winooski, UT, USA).

yeast α-glucosidase = yeast α-glucosidase (Saccharomyces cerevisiae, UniProt P53341); assay: α-Glucosidase inhibitory assay with pNPG substrate, with Dixon and Lineweaver-Burk kinetics; format: biochemical; settings: determined by Dixon and Lineweaver-Burk plots
Chain of yeast α-glucosidase (P53341 whole entry): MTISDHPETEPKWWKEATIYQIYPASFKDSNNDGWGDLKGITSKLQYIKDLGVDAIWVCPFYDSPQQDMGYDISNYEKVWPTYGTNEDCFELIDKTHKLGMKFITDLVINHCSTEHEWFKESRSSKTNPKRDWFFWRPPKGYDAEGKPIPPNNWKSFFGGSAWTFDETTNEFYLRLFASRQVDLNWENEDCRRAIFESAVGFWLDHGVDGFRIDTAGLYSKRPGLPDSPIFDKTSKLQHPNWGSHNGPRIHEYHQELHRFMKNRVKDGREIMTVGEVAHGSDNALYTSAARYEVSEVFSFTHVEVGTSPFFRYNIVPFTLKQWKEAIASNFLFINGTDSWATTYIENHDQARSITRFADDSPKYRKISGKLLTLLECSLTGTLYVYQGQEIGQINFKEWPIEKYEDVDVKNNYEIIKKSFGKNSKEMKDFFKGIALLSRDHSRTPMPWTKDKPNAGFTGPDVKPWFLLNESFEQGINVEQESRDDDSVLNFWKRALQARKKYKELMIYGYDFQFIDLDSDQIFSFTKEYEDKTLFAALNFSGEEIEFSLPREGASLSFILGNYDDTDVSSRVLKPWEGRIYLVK
Description: The enzyme inhibition analysis was carried out using the technique previously reported in our paper. The absorbance was recorded at 405 nm immediately afterward using the microplate spectrophotometer (Molecular Devices, Sunnyvale, CA, USA).
as §2

[6] = Inhibition of ONOO−-mediated albumin (protein tyrosine) nitration, Western blot; format: biochemical
Description: ONOO^−-mediated protein tyrosine nitration was evaluated with minor modifications by using in our previously reported method.

[7] = Total ROS generation inhibitory activity (rat kidney homogenate, DCFH-DA); format: biochemical; settings: mean ± SEM of triplicate
Description: The generation of ROS was calculated using the ROS-sensitive fluorescence indicator (DCFH-DA) of 7-dichlorofluorescein diacetate. In a 50 mM potassium phosphate buffer, rat kidney homogenates (Tissue bank from Pusan National University, Busan, S. Korea) were prepared from the kidneys of newly killed male Wistar rats weighing between 150–200 g and 10 μg of each test sample was applied to 190 μL of kidney post mitochondrial fraction. The mixture was loaded in a potassium phosphate buffer with 50 μL of DCFH-DA (12.5 mM) and shaken for 5 min. On a microplate fluorescence spectrophotometer FLX 800 (Bio-Tek Instruments Inc., Winooski, UT, USA), the fluorescence of 2′,7′-dichlorofluorescein (DCF), the oxidation product from DCFH-DA, was measured at an excitation wavelength of 485 nm and an emission wavelength of 530 nm for 30 min. As a positive control, Trolox, was used.

[8] = Homo sapiens, HepG2, pretreated 1 h, read-out: ROS production, inhibition

Compound	PTP1B expression ([1]; at 20 and 40 µM, 24 h)	Protein Tyrosine Phosphatase 1B Inhibition Type [2]	Ki [2]	IC50 [2]	relative glucose uptake percentage ([3]; 40 µM)	IC50 [4]	ROS generation [5]	α-Glucosidase Inhibition Type (yeast α-glucosidase)	ONOO−-mediated albumin nitration ([6]; pretreatment at 12.5–100 µM)	IC50 [7]	PTP1B expression ([1]; concentration not given)	PTP1B expression ([1]; at 10 and 15 µM, 24 h)	fold more active than decursinol ([2]; versus decursinol of the earlier work, enzyme not named in the sentence (PTP1B and α-glucosidase discussed))	relative glucose uptake percentage ([3]; 15 µM)	inhibition at 5 µM ([5]; Homo sapiens, HepG2, 5 μM, pretreated 1 h, read-out: ROS production, inhibition)	inhibition at 10 µM [5, 8]	inhibition at 15 µM ([5]; Homo sapiens, HepG2, 15 μM, pretreated 1 h, read-out: ROS production, inhibition)	ONOO−-mediated albumin nitration ([6]; pretreatment at 5–40 µM)	relative glucose uptake percentage ([3]; 10 µM)
CC(C)=CC(=O)O[C@@H]1c2cc3ccc(=O)oc3cc2OC(C)(C)[C@H]1O [Pd-C-II]	downregulated PTP1B’s expression	Competitive	9.72 µM	6.17 ± 0.31 µM	120%	3.77 ± 0.15 µM	significantly inhibited ROS generation	Mixed	pronounced dose-dependent inhibition	10.8 ± 0.73 µM									
C/C=C\C(=O)O[C@H]1[C@H](OC(C)=O)c2cc3ccc(=O)oc3cc2OC1(C)C [Pd-C-III]		Mixed	16 µM	12 ± 0.43 µM	117%	1.44 ± 0.22 µM	significantly inhibited ROS generation	Noncompetitive	pronounced dose-dependent inhibition	9.69 ± 0.21 µM	significantly downregulated PTP1B’s expression								
CC(C)(S)[C@H](N)C(=O)O [L-Penicillamine, L-penicillamine, reference compound]						1.86 ± 0.11 µM													
CC1(C)Oc2cc3oc(=O)ccc3cc2[C@@H](O)[C@@H]1O [(+)-trans-decursidinol]		Competitive	2.84 µM	2.33 ± 0.07 µM		4.57 ± 0.21 µM		Competitive		9.77 ± 0.32 µM		diminished PTP1B’s expression	25 times	125%	75.5%	57.5%	43.4%	significantly inhibited in a concentration-dependent manner	
CN(C)C(=N)N=C(N)N [metformin, reference compound]																			129%
Cc1c(C)c2c(c(C)c1O)CCC(C)(C(=O)O)O2 (centres unmarked) [Trolox, trolox, reference compound]										3.29 ± 0.26 µM						~49%			
CC(C)=CC(=O)O[C@H]1[C@H](O)c2cc3ccc(=O)oc3cc2OC1(C)C [Pd-C-I]	downregulated PTP1B’s expression	Competitive	6.21 µM	4.32 ± 0.12 µM	128%	1.82 ± 0.44 µM	significantly inhibited ROS generation	Mixed	pronounced dose-dependent inhibition	6.32 ± 0.41 µM									

From article PMC7919472, “Insulin–Mimetic Dihydroxanthyletin-Type Coumarins from Angelica decursiva with Protein Tyrosine Phosphatase 1B and α-Glucosidase Inhibitory Activities and Docking Studies of Their Molecular Mechanisms” (Antioxidants, 2021)
